We go through four molecules from patent US20190083497A1, “MODULATION OF BLOOD BRAIN BARRIER PERMEABILITY” (Cornell University, priority 2008, published 2019).

The subject of experiment [1] is hCMEC/D3 cells. Nature of the experiment: cAMP levels in hCMEC/D3 cells (cAMP Screen kit). The format is cell-based, human. As to conditions: 15 minutes treatment. The procedure:
Adenosine receptor activation regulates cAMP levels in cells. In order to determine the sensitivity of human brain endothelial cells to adenosine receptor induced cAMP regulation, human brain endothelial cells were cultured with adenosine receptor agonists at various concentrations, followed by cAMP level analysis, as shown in FIG. 13.
HCMECD3 cells were grown to confluencey on 24 well plates. As adenosine receptor (“AR”) stimulation is known to influence cAMP levels, cells were treated with or without various concentrations of NECA (general AR agonist), CCPA (A1AR agonist), CGS 21680 (A2AAR agonist), DMSO vehicle, or Forksolin (induces cAMP). After 15 minutes, lysis buffer was added and the cells were frozen at −80 C to stop the reaction. Duplicate samples were used for each condition. cAMP levels were assayed using a cAMP Screen kit (Applied Biosystems, Foster City, Calif.).

Experiment [2] has as its system Z310 cells. Nature of the experiment: Jurkat cell migration across Z310 choroid plexus cell transwell. The format is cell-based, murine. As to conditions: Z310 cells on Transwell; migrated cells counted after 24 hours; n=1. The procedure: The choroid plexus (“CP”) controls lymphocyte migration into the CNS. The CP expresses the A1 and A2a adenosine receptors. EAE is prevented in mice when A2a adenosine receptor activity is blocked. EAE is enhanced when the A1 adenosine receptor is missing. It was hypothesized that A2a adenosine receptor activation promotes lymphocyte migration across the CP. Z310 cells are a murine choroid plexus cell line. To test the hypothesis, Transwell membranes were seeded with Z310 cells and allowed to grow to confluencey. 2×10^6 Jurkat cells were added to the upper chamber with or with out NECA (n=1, general AR agonist), CCPA (n=1, A1AR agonist), CGS 21680 (n=1, A2AAR agonist), or DMSO vehicle(n=1). After 24 hours, migrated cells in the lower chamber were counted. Values are relative to the number of cells that migrate through non-Z310 seeded transwells and the results are shown in FIG. 12.

The test system of experiment [3] is hCMEC/D3 cells. Put plainly: Jurkat cell migration across hCMEC/D3 transwell in vitro BBB. As to conditions: hCMEC/D3 on Transwell; migrated cells counted after 24 hours. The experiment is classed as cell-based, human. The source says:
The blood brain barrier (BBB) is comprised of endothelial cells. During late stages of EAE, lymphocytes are known to cross the BBB. In order to determine if adenosine receptor stimulation of brain endothelial cells could promote lymphocyte migration through the BBB, an in vitro BBB was established. The human brain endothelial cell line hCMEC/D3 (Weksler et al., “Blood-brain Barrier-specific Properties of a Human Adult Brain Endothelial Cell Line,” J. Neurochem. 19(13):1872-4 (2005); Poller et al., “The Human Brain Endothelial Cell Line hCMEC/D3 as a Human Blood-brain Barrier Model for Drug Transport Studies,” J. Neurochem. 107(5):1358-1368 (2008), which are hereby incorporated by reference in their entirety) was obtained, which has been previously described as having BBB properties.
hCMEC/D3 cells were seeded onto Transwell and allowed to grow to confluencey. 2×10^6 Jurkat cells were added to the upper chamber with or without NECA (general adenosine receptor [AR] agonist), CCPA (A1AR agonist), CGS 21680 (A2AAR agonist), or DMSO vehicle. After 24 hours, migrated cells in the lower chamber were counted. Values are relative to the number of cells that migrate through non-HCMECD3 seeded transwells.

In experiment [4] the test system is EAE-induced mice. Nature of the experiment: EAE induction and scoring (MOG35-55/CFA + pertussis toxin). The experiment is classed as in vivo, mouse.
Method: C57BL/6 and tcrα^−/− mice on the C57BL/6 background were purchased from The Jackson Laboratories. Mice were bred and housed under specific pathogen-free conditions at Cornell University or the University of Turku. For adenosine receptor blockade experiments, mice were given drinking water supplemented with 0.6 g/L of caffeine (Sigma) or 2 mg/kg SCH58261 (1 mg/kg s.c. and 1 mg/kg i.p.) in DMSO (45% vol. in PBS) or 45% DMSO alone starting 1 day before EAE induction and continuing throughout the experiment. All procedures performed on mice were approved by the relevant animal review committee.
EAE was induced by subjecting mice to the myelin oligodendrocyte glycoprotein (“MOG”) EAE-inducing regimen as described in Swanborg, “Experimental Autoimmune Encephalomyelitis in Rodents as a Model for Human Demyelinating Disease,” Clin. Immunol. […] Briefly, a 1:1 emulsion of MOG35-55 peptide (3 mg/ml in PBS) (Invitrogen) and complete Freund's adjuvant (CFA, Sigma) was injected subcutaneously (50 μl) into each flank. Pertussis toxin (PTX, 20 ng) (Biological Laboratories Inc.) was given intravenously (200 μl in PBS) at the time of immunization and again 2 days later. Mice were scored daily for EAE based on disease symptom severity; 0=no disease, 0.5 -1=weak/limp tail, 2=limp tail and partial hind limb paralysis, 3=total hind limb paralysis, 4=both hind limb and fore limb paralysis, 5=death. Mice with a score of 4 were euthanized.
Wild type mice were given 1 mg/kg of SCH58261 in DMSO or DMSO alone both i.p. and s.c. (for a total of 2 mg/kg) 1 day prior to EAE induction and daily for 30 days throughout the course of the experiment (FIG. 7C).
Experiment [5] has as its system blood brain barrier. Put plainly: FITC-Dextran extravasation through the brain endothelium. The experiment is classed as in vivo, mouse. As to conditions: 30 minutes after IP FITC Dextran. As for the experimental part: In order to examine the effects of caffeine, a general adenosine receptor antagonist, on blood brain barrier permeability, mice were fed caffeine for several days and then injected with FITC Dextran, commonly used to assess endothelial permeability.
More particularly, mice were fed 0.6 g/l caffeine (Sigma, St. Louis, Mo.) in water or regular water ad lib for five days. Mice were injected IP with FITC Dextran (10,000 MW, Molecular Probes, Eugene, Oreg.) and after 30 minutes mice were perfused with ice cold PBS via the left ventricle. Brains were removed and snap frozen in OCT (Tissue Tek, Torrance, Calif.) and stored at −80° C. until sectioning. Tissue sections (5 μm) were stained with hematoxylin for light microscopy and with DAPI for a fluorescent counterstain.

On to `OC[C@H]1O[C@@H](n2cnc3c(NC4CCCC4)nc(Cl)nc32)[C@H](O)[C@@H]1O` [CCPA], for which, in experiment [1] (high levels of the agonist), the cAMP levels result is on record as “increased cAMP levels”. Also, the “lymphocyte (Jurkat) migration across the CP” value in experiment [2] was “induced lymphocyte migration at high levels”. Besides, in experiment [3], the “lymphocyte (Jurkat) migration across the in vitro BBB” value is listed as “induced lymphocyte migration at high levels”.
As for `Cn1c(=O)c2c(ncn2C)n(C)c1=O` [caffeine], the “EAE development (mean EAE score)” value is given as “did not develop EAE” in experiment [4] (cd73-/- mice, caffeine 0.6 g/L in drinking water from 1 day prior to and throughout the EAE experiment); “dramatically protected against EAE development” in experiment [4] (wild type mice, caffeine 0.6 g/L in drinking water from 1 day prior to and throughout the EAE experiment). For the same molecule, the “FITC-Dextran extravasation across the blood brain barrier (green color of brain sections)” value is on record as “much less intense green color than wild type mice” in experiment [5] (CD73-/- mice fed 0.6 g/l caffeine in water for five days) and “intensely green background” in experiment [5] (wild type mice fed 0.6 g/l caffeine in water for five days).
As to `CCNC(=O)[C@H]1O[C@@H](n2cnc3c(N)nc(NCCc4ccc(CCC(=O)O)cc4)nc32)[C@H](O)[C@@H]1O` [CGS], in experiment [1] (various concentrations), the cAMP levels result is recorded as “slightly increased cAMP levels”. Besides, in experiment [2], the “lymphocyte (Jurkat) migration across the CP” value is given as “promoted lymphocyte migration across the CP”. Further, the “lymphocyte (Jurkat) migration across the in vitro BBB” value in experiment [3] is “promoted lymphocyte migration across the in vitro BBB when used at a lower concentration”.

B1: PEG-ADA: Pegylated adenosine deaminase (protein, UniProt P56658 2-363, looked up)
Adenosine deaminase: AQTPAFNKPKVELHVHLDGAIKPETILYYGRKRGIALPADTPEELQNIIGMDKPLSLPEFLAKFDYYMPAIAGCREAVKRIAYEFVEMKAKDGVVYVEVRYSPHLLANSKVEPIPWNQAEGDLTPDEVVSLVNQGLQEGERDFGVKVRSILCCMRHQPSWSSEVVELCKKYREQTVVAIDLAGDETIEGSSLFPGHVKAYAEAVKSGVHRTVHAGEVGSANVVKEAVDTLKTERLGHGYHTLEDATLYNRLRQENMHFEVCPWSSYLTGAWKPDTEHPVVRFKNDQVNYSLNTDDPLIFKSTLDTDYQMTKNEMGFTEEEFKRLNINAAKSSFLPEDEKKELLDLLYKAYGMPSPASAEQCL
modifications: PEG
notes: Pegylated adenosine deaminase
As to B1, in experiment [4] (wild type mice, 15 units/kg body weight i.p. every 4 days, vs PBS vehicle), the “EAE development (mean EAE score)” value was “inhibits development of EAE in wild type mice”.
